Results as given in patent US6504030B1, “Polymorphic form of clopidogrel hydrogen sulphate” (Sanofi-Synthelabo, priority 1998, dated 2003).
Counter-ions that a name gives are not always drawn.

Key:
[1] = compared with dextrorotatory isomer, per EP 281459; cited from earlier work
platelet aggregation = conditions: enantiomers compared, per EP 281459; cited from earlier work
[2] = compared with Form 1

| compactness of bulk solid [2] | electrostatic behaviour of bulk solid [2] | Compound | tolerance [1] | platelet aggregation inhibiting activity (platelet aggregation) |
| --- | --- | --- | --- | --- |
|  |  | COC(=O)C(c1ccccc1Cl)N1CCc2sccc2C1 (single isomer, unassigned) [levorotatory isomer] | less well tolerated | less active |
| more compact | much less electrostatic than Form 1 | COC(=O)[C@H](c1ccccc1Cl)N1CCc2sccc2C1.O=S(=O)(O)O [Form 2, hydrogen sulfate of methyl (+)-(S)-α-(2-chlorophenyl)-4,5,6,7-tetrahydrothieno[3,2-c]pyridine-5-acetate] |  |  |
|  |  | COC(=O)[C@H](c1ccccc1Cl)N1CCc2sccc2C1 [clopidogrel hydrogen sulfate, hydrogen sulfate of methyl (+)-(S)-α-(2-chlorophenyl)-4,5,6,7-tetrahydrothieno[3,2-c]pyridine-5-acetate] |  | excellent platelet aggregation inhibiting activity |
